Species: Rattus norvegicus
Assay: DrugMatrix - Regimen: Daily Repeat
Format: toxicity, organism-based, Sprague-Dawley
Parameters: regimen Daily Repeat, gender Male, age 6-8 weeks
Details: in vivo, iv, vehicle 100 % SALINE; for ABSOLUTE BASOPHIL / ABSOLUTE EOSINOPHIL / ABSOLUTE LYMPHOCYTE / ABSOLUTE MONOCYTE / ABSOLUTE SEGMENTED NEUTROPHIL / BASOPHIL / EOSINOPHIL / ERYTHROCYTE COUNT / HEMATOCRIT / HEMOGLOBIN / LEUKOCYTE COUNT / LYMPHOCYTE / MEAN CORPUSCULAR HEMOGLOBIN / MEAN CORPUSCULAR HEMOGLOBIN CONCENTRATION / MEAN CORPUSCULAR VOLUME / MONOCYTE / NEUTROPHIL / NUCLEATED RED BLOOD CELLS / PLATELET COUNT: tissue Blood; for ALANINE AMINOTRANSFERASE / ALBUMIN / ALKALINE PHOSPHATASE / ASPARTATE AMINOTRANSFERASE / BLOOD UREA NITROGEN / CARBON DIOXIDE / CHLORIDE / CHOLESTEROL / CREATINE PHOSPHOKINASE / CREATININE / GLUCOSE / LACTATE DEHYDROGENASE / LIPASE / PHOSPHORUS / POTASSIUM / SODIUM / TOTAL BILIRUBIN / TOTAL PROTEIN / URIC ACID: tissue Plasma
[1] = 0.07 mg/kg, 72 h, dose level Low, time 3 day
[2] = 0.07 mg/kg, 120 h, dose level Low, time 5 day
[3] = […], 72 h, dose 0.16 mg/Kg, dose level High, time 3 day
[4] = […], 120 h, dose 0.16 mg/Kg, dose level High, time 5 day

In the case of `CNC(=O)Oc1ccc2c(c1)[C@]1(C)CCN(C)[C@@H]1N2C` [PHYSOSTIGMINE], the “ABSOLUTE BASOPHIL” value [1] is reported as 0 CELLS/uL, the “ABSOLUTE EOSINOPHIL” value [1] is reported as 271.33 CELLS/uL and the “ABSOLUTE LYMPHOCYTE” value [1] is reported as 11715.67 CELLS/uL. The “ABSOLUTE MONOCYTE” value [1] was 88.33 CELLS/uL, the “ABSOLUTE SEGMENTED NEUTROPHIL” value [1] was 1491.33 CELLS/uL and the BASOPHIL [1] was 0%. For the same molecule, the EOSINOPHIL [1] was 2%, the “ERYTHROCYTE COUNT” value [1] was 5.08 x10E6/uL and the HEMATOCRIT [1] was 32.57%. For the same molecule, the HEMOGLOBIN [1] was 12.27 G/DL, the “LEUKOCYTE COUNT” value [1] was 13.57 x10E3/uL and the LYMPHOCYTE [1] was 86.67%. For the same molecule, the “MEAN CORPUSCULAR HEMOGLOBIN” value [1] was 24.13 pg, the “MEAN CORPUSCULAR HEMOGLOBIN CONCENTRATION” value [1] was 37.67 G/DL and the “MEAN CORPUSCULAR VOLUME” value [1] was 64.1 fL. The MONOCYTE [1] was 0.67%, the NEUTROPHIL [1] was 10.67% and the “NUCLEATED RED BLOOD CELLS” value [1] was 0 /100WBC. The “PLATELET COUNT” value [1] was 1091 x10E3/uL, the “ALANINE AMINOTRANSFERASE” value [1] was 64.33 u/L and the ALBUMIN [1] was 4.03 G/DL. For the same molecule, the “ALKALINE PHOSPHATASE” value [1] was 342.67 u/L, the “ASPARTATE AMINOTRANSFERASE” value [1] was 99.67 u/L and the “BLOOD UREA NITROGEN” value [1] was 14.67 mg/dL. The “CARBON DIOXIDE” value [1] was 24.67 mmol/L, the CHLORIDE [1] was 105.33 MEQ/L and the CHOLESTEROL [1] was 67.33 mg/dL. The “CREATINE PHOSPHOKINASE” value [1] was 386 u/L, the CREATININE [1] was 0.14 mg/dL and the GLUCOSE [1] was 161.67 mg/dL. The “LACTATE DEHYDROGENASE” value [1] was 95.33 u/L, the LIPASE [1] was 7.67 u/L and the PHOSPHORUS [1] was 12.37 mg/dL. For the same molecule, the POTASSIUM [1] was 5.92 MEQ/L, the SODIUM [1] was 144.47 MEQ/L and the “TOTAL BILIRUBIN” value [1] was 0.17 mg/dL. The “TOTAL PROTEIN” value [1] was 5.73 G/DL, the “URIC ACID” value [1] was 1.23 mg/dL and the “ABSOLUTE BASOPHIL” value [2] was 0 CELLS/uL. For the same molecule, the “ABSOLUTE EOSINOPHIL” value [2] was 138.33 CELLS/uL, the “ABSOLUTE LYMPHOCYTE” value [2] was 16178.33 CELLS/uL and the “ABSOLUTE MONOCYTE” value [2] was 247.67 CELLS/uL. For the same molecule, the “ABSOLUTE SEGMENTED NEUTROPHIL” value [2] was 2735.67 CELLS/uL, the BASOPHIL [2] was 0% and the EOSINOPHIL [2] was 0.67%. For the same molecule, the “ERYTHROCYTE COUNT” value [2] was 5.42 x10E6/uL, the HEMATOCRIT [2] was 34.33% and the HEMOGLOBIN [2] was 13.27 G/DL. The “LEUKOCYTE COUNT” value [2] was 19.3 x10E3/uL, the LYMPHOCYTE [2] was 84% and the “MEAN CORPUSCULAR HEMOGLOBIN” value [2] was 24.43 pg. For the same molecule, the “MEAN CORPUSCULAR HEMOGLOBIN CONCENTRATION” value [2] was 38.7 G/DL, the “MEAN CORPUSCULAR VOLUME” value [2] was 63.27 fL and the MONOCYTE [2] was 1.33%. For the same molecule, the NEUTROPHIL [2] was 14%, the “NUCLEATED RED BLOOD CELLS” value [2] was 0 /100WBC and the “PLATELET COUNT” value [2] was 1244.33 x10E3/uL. For the same molecule, the “ALANINE AMINOTRANSFERASE” value [2] was 50 u/L, the ALBUMIN [2] was 4.33 G/DL and the “ALKALINE PHOSPHATASE” value [2] was 370 u/L. For the same molecule, the “ASPARTATE AMINOTRANSFERASE” value [2] was 86.67 u/L, the “BLOOD UREA NITROGEN” value [2] was 22 mg/dL and the “CARBON DIOXIDE” value [2] was 24 mmol/L. The CHLORIDE [2] was 102 MEQ/L, the CHOLESTEROL [2] was 62.33 mg/dL and the “CREATINE PHOSPHOKINASE” value [2] was 479.33 u/L. For the same molecule, the CREATININE [2] was 0.2 mg/dL, the GLUCOSE [2] was 168 mg/dL and the “LACTATE DEHYDROGENASE” value [2] was 93.67 u/L. It also gave an LIPASE [2] of 8 u/L, a PHOSPHORUS [2] of 13.33 mg/dL and a POTASSIUM [2] of 6.49 MEQ/L. For the same molecule, the SODIUM [2] was 141.5 MEQ/L, the “TOTAL BILIRUBIN” value [2] was 0.2 mg/dL and the “TOTAL PROTEIN” value [2] was 6.17 G/DL. For the same molecule, the “URIC ACID” value [2] was 1.63 mg/dL, the “ABSOLUTE BASOPHIL” value [3] was 0 CELLS/uL and the “ABSOLUTE EOSINOPHIL” value [3] was 107 CELLS/uL. For the same molecule, the “ABSOLUTE LYMPHOCYTE” value [3] was 10987.67 CELLS/uL, the “ABSOLUTE MONOCYTE” value [3] was 71.33 CELLS/uL and the “ABSOLUTE SEGMENTED NEUTROPHIL” value [3] was 1134 CELLS/uL. The BASOPHIL [3] was 0%, the EOSINOPHIL [3] was 1% and the “ERYTHROCYTE COUNT” value [3] was 5.42 x10E6/uL. For the same molecule, the HEMATOCRIT [3] was 33.77%, the HEMOGLOBIN [3] was 13 G/DL and the “LEUKOCYTE COUNT” value [3] was 12.3 x10E3/uL. The LYMPHOCYTE [3] was 88.33%, the “MEAN CORPUSCULAR HEMOGLOBIN” value [3] was 24.03 pg and the “MEAN CORPUSCULAR HEMOGLOBIN CONCENTRATION” value [3] was 38.57 G/DL. For the same molecule, the “MEAN CORPUSCULAR VOLUME” value [3] was 62.37 fL, the MONOCYTE [3] was 0.67% and the NEUTROPHIL [3] was 10%. For the same molecule, the “NUCLEATED RED BLOOD CELLS” value [3] was 0 /100WBC, the “PLATELET COUNT” value [3] was 1231 x10E3/uL and the “ALANINE AMINOTRANSFERASE” value [3] was 56.33 u/L. The ALBUMIN [3] was 4.17 G/DL, the “ALKALINE PHOSPHATASE” value [3] was 305 u/L and the “ASPARTATE AMINOTRANSFERASE” value [3] was 87.33 u/L. The “BLOOD UREA NITROGEN” value [3] was 15.33 mg/dL, the “CARBON DIOXIDE” value [3] was 27.67 mmol/L and the CHLORIDE [3] was 107 MEQ/L. For the same molecule, the CHOLESTEROL [3] was 78.67 mg/dL, the “CREATINE PHOSPHOKINASE” value [3] was 187.33 u/L and the CREATININE [3] was 0.13 mg/dL. For the same molecule, the GLUCOSE [3] was 159.33 mg/dL, the “LACTATE DEHYDROGENASE” value [3] was 115.33 u/L and the LIPASE [3] was 8.67 u/L. The PHOSPHORUS [3] was 13.93 mg/dL, the POTASSIUM [3] was 6.15 MEQ/L and the SODIUM [3] was 147.9 MEQ/L. For the same molecule, the “TOTAL BILIRUBIN” value [3] was 0.17 mg/dL, the “TOTAL PROTEIN” value [3] was 5.83 G/DL and the “URIC ACID” value [3] was 1.43 mg/dL. The “ABSOLUTE BASOPHIL” value [4] was 0 CELLS/uL, the “ABSOLUTE EOSINOPHIL” value [4] was 171.67 CELLS/uL and the “ABSOLUTE LYMPHOCYTE” value [4] was 8706.33 CELLS/uL. The “ABSOLUTE MONOCYTE” value [4] was 43.33 CELLS/uL, the “ABSOLUTE SEGMENTED NEUTROPHIL” value [4] was 3645.33 CELLS/uL and the BASOPHIL [4] was 0%. The EOSINOPHIL [4] was 1.33%, the “ERYTHROCYTE COUNT” value [4] was 5.7 x10E6/uL and the HEMATOCRIT [4] was 35.8%. For the same molecule, the HEMOGLOBIN [4] was 13.57 G/DL, the “LEUKOCYTE COUNT” value [4] was 12.57 x10E3/uL and the LYMPHOCYTE [4] was 68.67%. For the same molecule, the “MEAN CORPUSCULAR HEMOGLOBIN” value [4] was 23.8 pg, the “MEAN CORPUSCULAR HEMOGLOBIN CONCENTRATION” value [4] was 37.9 G/DL and the “MEAN CORPUSCULAR VOLUME” value [4] was 62.8 fL. For the same molecule, the MONOCYTE [4] was 0.33%, the NEUTROPHIL [4] was 29.67% and the “NUCLEATED RED BLOOD CELLS” value [4] was 0 /100WBC. The “PLATELET COUNT” value [4] was 1062 x10E3/uL, the “ALANINE AMINOTRANSFERASE” value [4] was 52.67 u/L and the ALBUMIN [4] was 4.03 G/DL. For the same molecule, the “ALKALINE PHOSPHATASE” value [4] was 416.33 u/L, the “ASPARTATE AMINOTRANSFERASE” value [4] was 80 u/L and the “BLOOD UREA NITROGEN” value [4] was 15 mg/dL. The “CARBON DIOXIDE” value [4] was 26 mmol/L, the CHLORIDE [4] was 104 MEQ/L and the CHOLESTEROL [4] was 60 mg/dL. For the same molecule, the “CREATINE PHOSPHOKINASE” value [4] was 226.67 u/L, the CREATININE [4] was 0.22 mg/dL and the GLUCOSE [4] was 181 mg/dL. The “LACTATE DEHYDROGENASE” value [4] was 200 u/L, the LIPASE [4] was 7.67 u/L and the PHOSPHORUS [4] was 13.3 mg/dL. For the same molecule, the POTASSIUM [4] was 6.09 MEQ/L, the SODIUM [4] was 146.53 MEQ/L and the “TOTAL BILIRUBIN” value [4] was 0.13 mg/dL. For the same molecule, the “TOTAL PROTEIN” value [4] was 6.43 G/DL and the “URIC ACID” value [4] was 1.77 mg/dL.

Reference: ChEMBL document CHEMBL3885881, “DrugMatrix”
